Test results: US11407736B2 (priority 2019, dated 2022)
pIC50: −log10 of the molar value. Like-named read-outs stand apart in the source and are kept apart here.

Key:
L929 cells = test: L929 cell necroptosis assay (TNFa + zVAD, CellTiter-Glo); type: cell-based, murine
How it was run: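 Murine L929 cells, plated 18 h beforehand at 10K cells/well in RPMI 1640 with 10% FBS, were switched to medium containing 40 uM zVAD-fmk and given compound from 4-fold serial dilutions. Viability after 18 h of TNFa stimulation at 37° C was read by CellTiter-Glo luminescence.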

U937 cells = test: U937 cell necroptosis assay (TNFa + zVAD, CellTiter-Glo); type: cell-based, human
How it was run: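 Human U937 and murine L929 cells in RPMI 1640/10% FBS were pre-incubated 1 h at 37 °C with serially diluted compound plus zVAD-fmk (U937 plated with 60 uM, L929 medium with 40 uM), then stimulated with 2 ng/mL TNFa (final). Viability read by CellTiter-Glo luminescence after 18 h.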

RIPK1 = RIPK1 (Homo sapiens (Human), UniProt Q13546); test: RIPK1 ADP-Glo biochemical kinase assay
Procedure: The final reaction volume was 5.0ul.
Adding 5 μl of ADP-Glo™ terminated the reaction.

[1] = Mus musculus, L929, L929 cells, TNFa + zVAD, read-out: L929-CTG-recovery, L929, TNFa + zVAD (IC50)
[2] = Homo sapiens, U-937, U937 cells, TNFa + zVAD, read-out: U937 Zvad TNF CTG Recovery, U937, TNFa + zVAD (IC50)
[3] = read-out: RIPK1 ADP-Glo Kinase (IC50)
[4] = L929 cells, TNFa + zVAD, read-out: L929-CTG-recovery, L929, TNFa + zVAD (IC50)
[5] = Mus musculus, L929, read-out: L929-CTG-recovery, L929, TNFa + zVAD (IC50), L929 cells, TNFa + zVAD
[6] = Homo sapiens, U-937, read-out: U937 Zvad TNF CTG Recovery, U937, TNFa + zVAD (IC50), U937 cells, TNFa + zVAD

Chain of RIPK1 (Q13546 whole entry, species assumed): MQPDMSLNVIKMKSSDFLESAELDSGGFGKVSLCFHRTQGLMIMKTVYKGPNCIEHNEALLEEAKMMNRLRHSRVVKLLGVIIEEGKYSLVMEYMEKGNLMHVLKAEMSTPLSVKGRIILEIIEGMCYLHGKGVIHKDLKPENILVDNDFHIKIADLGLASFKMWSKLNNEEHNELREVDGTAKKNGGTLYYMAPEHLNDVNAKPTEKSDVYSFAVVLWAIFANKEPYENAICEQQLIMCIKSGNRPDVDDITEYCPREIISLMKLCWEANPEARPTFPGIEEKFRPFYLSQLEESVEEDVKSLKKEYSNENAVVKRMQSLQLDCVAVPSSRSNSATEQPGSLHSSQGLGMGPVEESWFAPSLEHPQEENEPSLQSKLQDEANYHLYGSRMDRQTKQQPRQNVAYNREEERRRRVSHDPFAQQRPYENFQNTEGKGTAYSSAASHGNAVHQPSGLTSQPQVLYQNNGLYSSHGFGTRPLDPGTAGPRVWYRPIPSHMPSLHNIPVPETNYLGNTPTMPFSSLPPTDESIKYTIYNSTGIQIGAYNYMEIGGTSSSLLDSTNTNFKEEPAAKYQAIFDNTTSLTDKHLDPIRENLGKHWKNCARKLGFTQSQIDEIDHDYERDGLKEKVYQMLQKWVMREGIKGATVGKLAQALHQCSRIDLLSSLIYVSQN

Q: How did the pIC50 (L929 cells; [1]) turn out when C=C(C#Cc1ccc2c(c1)N(C)C(=O)[C@@H](NC(=O)c1cc(Oc3ccc(F)cc3)ccn1)CO2)CCNC [Compound I-138, (S)-4-(4-fluorophenoxy)-N-(5-methyl-7-(5-(methylamino)-3-methylenepent-1-yn-1-yl)-4-oxo-2,3,4,5-tetrahydrobenzo[b][1,4]oxazepin-3-yl)picolinamide] was run?
A: The pIC50 was 5.50.

Q: What about the pIC50 (U937 cells; [2]) of the same compound?
A: The pIC50 was 6.91.

Q: And the pIC50 (RIPK1; [3])?
A: Its pIC50 is 7.11.

Q: What does the source list for CN1C(=O)[C@@H](NC(=O)c2cc(Oc3ccccc3)ccn2)COc2ccc(C#CC(C)(C)CN3CCOCC3)cc21 [Compound I-140, (S)—N-(7-(3,3-dimethyl-4-morpholinobut-1-yn-1-yl)-5-methyl-4-oxo-2,3,4,5-tetrahydrobenzo[b][1,4]oxazepin-3-yl)-4-phenoxypicolinamide]?
A: pIC50 (L929 cells; [1]): 6.96; pIC50 (U937 cells; [2]): 8.34; pIC50 (RIPK1; [3]): 6.91

Q: C[C@H](NC(=O)OC(C)(C)C)C(=O)OCC(C)(C)C#Cc1ccc2c(c1)N(C)C(=O)[C@@H](NC(=O)c1cc(Oc3ccccc3)ccn1)CO2 [Compound I-141, tert-butyl ((S)-1-((2,2-dimethyl-4-((S)-5-methyl-4-oxo-3-(4-phenoxypicolinamido)-2,3,4,5-tetrahydrobenzo[b][1,4]oxazepin-7-yl)but-3-yn-1-yl)oxy)-1-oxopropan-2-yl)-12-azanecarboxylate] was tested. Which pIC50 (L929 cells; [4]) did it give?
A: Its pIC50 is 6.92.

Q: And the pIC50 (U937 cells; U937 cells, TNFa + zVAD, read-out: U937 Zvad TNF CTG Recovery, U937, TNFa + zVAD (IC50))?
A: Its pIC50 is 8.66.

Q: What about the pIC50 (RIPK1; [3]) of the same compound?
A: Its pIC50 is 6.38.

Q: C[C@H](N)C(=O)OCC(C)(C)C#Cc1ccc2c(c1)N(C)C(=O)[C@@H](NC(=O)c1cc(Oc3ccccc3)ccn1)CO2 [Compound I-142, 2,2-dimethyl-4-((S)-5-methyl-4-oxo-3-(4-phenoxypicolinamido)-2,3,4,5-tetrahydrobenzo[b][1,4]oxazepin-7-yl)but-3-yn-1-yl L-alaninate] was tested. Which pIC50 (L929 cells; [1]) did it give?
A: Its pIC50 is 7.11.

Q: And the pIC50 (U937 cells; [2])?
A: The pIC50 was 8.85.

Q: What about the pIC50 (RIPK1; [3]) of the same compound?
A: The pIC50 was 7.62.

Q: What does the source list for CN1C(=O)[C@@H](NC(=O)c2cc(Oc3ccccc3)ccn2)COc2ccc(C#CC(C)(C)COC(=O)CCC(=O)O)cc21 [Compound I-144, (S)-4-((2,2-dimethyl-4-(5-methyl-4-oxo-3-(4-phenoxypicolinamido)-2,3,4,5-tetrahydrobenzo[b][1,4]oxazepin-7-yl)but-3-yn-1-yl)oxy)-4-oxobutanoic acid]?
A: pIC50 (L929 cells; [1]): 6.81; pIC50 (U937 cells; [2]): 8.92; pIC50 (RIPK1; [3]): 7.66

Q: What does the source list for CC(=O)O[C@@H](C(=O)O)[C@@H](OC(C)=O)C(=O)OCC(C)(C)C#Cc1ccc2c(c1)N(C)C(=O)[C@@H](NC(=O)c1cc(Oc3ccccc3)ccn1)CO2 [Compound I-145, (2R,3R)-2,3-diacetoxy-4-((2,2-dimethyl-4-((S)-5-methyl-4-oxo-3-(4-phenoxypicolinamido)-2,3,4,5-tetrahydrobenzo[b][1,4]oxazepin-7-yl)but-3-yn-1-yl)oxy)-4-oxobutanoic acid]?
A: pIC50 (L929 cells; [1]): 5.52; pIC50 (U937 cells; [2]): 8.07; pIC50 (RIPK1; [3]): 7.56

Q: Which results are given for CN1CC(F)(C#Cc2ccc3c(c2)N(C)C(=O)[C@@H](NC(=O)c2cc(Oc4ccccc4)ccn2)CO3)C1 [Compound I-146]?
A: pIC50 (L929 cells; [5]): 7.74; pIC50 (U937 cells; [6]): 9.40; pIC50 (RIPK1; [3]): 7.76

Q: With CN1C(=O)[C@@H](NC(=O)c2cc(Oc3ccccc3)ccn2)COc2ccc(C#CC3(OC(=O)CCC(=O)O)COC3)cc21 [Compound I-147, (S)-4-((3-((5-methyl-4-oxo-3-(4-phenoxypicolinamido)-2,3,4,5-tetrahydrobenzo[b][1,4]oxazepin-7-yl)ethynyl)oxetan-3-yl)oxy)-4-oxobutanoic acid] as the compound, how does the pIC50 (L929 cells; [4]) read?
A: The pIC50 was 6.81.

Q: And the pIC50 (U937 cells; [2])?
A: The pIC50 was 8.92.

Q: And the pIC50 (RIPK1; [3])?
A: Its pIC50 is 7.76.

Q: CN1C(=O)[C@@H](NC(=O)c2cc(Oc3ccc(F)cc3)ccn2)COc2ccc(C#CC(C)(C)CO)cc21 [Compound I-148, (S)-4-(4-fluorophenoxy)-N-(7-(4-hydroxy-3,3-dimethylbut-1-yn-1-yl)-5-methyl-4-oxo-2,3,4,5-tetrahydrobenzo[b][1,4]oxazepin-3-yl)picolinamide] was tested. Which pIC50 (L929 cells; [1]) did it give?
A: The pIC50 was 6.44.

Q: What about the pIC50 (U937 cells; [2]) of the same compound?
A: Its pIC50 is 8.28.

Q: What about the pIC50 (RIPK1; [3]) of the same compound?
A: The pIC50 was 7.47.

Q: What does the source list for CN1C(=O)[C@@H](NC(=O)c2cc(Oc3ccccc3)ccn2)COc2ccc(CN3CCC4(CCOCC4)CC3)cc21 [Compound I-149, (S)—N-(7-((3-oxa-9-azaspiro[5.5]undecan-9-yl)methyl)-5-methyl-4-oxo-2,3,4,5-tetrahydrobenzo[b][1,4]oxazepin-3-yl)-4-phenoxypicolinamide]?
A: pIC50 (L929 cells; [1]): 4.94; pIC50 (U937 cells; [2]): 7.52; pIC50 (RIPK1): 7.40

Q: CN1C(=O)[C@@H](NC(=O)c2cc(Oc3ccccc3)ccn2)COc2ccc(C#CC3(O)CN(C(=O)C(F)(F)F)C3)cc21 [Compound I-151, (S)—N-(7-((3-hydroxy-1-(2,2,2-trifluoroacetyl)azetidin-3-yl)ethynyl)-5-methyl-4-oxo-2,3,4,5-tetrahydrobenzo[b][1,4]oxazepin-3-yl)-4-phenoxypicolinamide] was tested. Which pIC50 (L929 cells; [5]) did it give?
A: The pIC50 was 5.97.

Q: And the pIC50 (U937 cells; [6])?
A: The pIC50 was 7.77.

Q: What about the pIC50 (RIPK1; [3]) of the same compound?
A: Its pIC50 is 7.26.

Q: CN1C(=O)[C@@H](NC(=O)c2cc(OC3CCC3)ccn2)COc2ccc(C#CC(C)(C)O)cc21 [Compound I-152, (S)-4-cyclobutoxy-N-(7-(3-hydroxy-3-methylbut-1-yn-1-yl)-5-methyl-4-oxo-2,3,4,5-tetrahydrobenzo[b][1,4]oxazepin-3-yl)picolinamide] was tested. Which pIC50 (L929 cells; [1]) did it give?
A: Its pIC50 is 5.60.

Q: And the pIC50 (U937 cells; [2])?
A: Its pIC50 is 7.41.

Q: What about the pIC50 (RIPK1; [3]) of the same compound?
A: The pIC50 was 7.99.

Q: What does the source list for CN1C(=O)[C@@H](NC(=O)c2cc(OC3CCC3)ccn2)COc2ccc(C#CC3(O)COC3)cc21 [Compound I-153, (S)-4-cyclobutoxy-N-(7-((3-hydroxyoxetan-3-yl)ethynyl)-5-methyl-4-oxo-2,3,4,5-tetrahydrobenzo[b][1,4]oxazepin-3-yl)picolinamide]?
A: pIC50 (L929 cells; [1]): 5.91; pIC50 (U937 cells; [2]): 7.79; pIC50 (RIPK1; [3]): 7.49

Q: With COC1(C#Cc2ccc3c(c2)N(C)C(=O)[C@@H](NC(=O)c2cc(Oc4ccccc4)ccn2)CO3)CNC1 [Compound I-154, (S)—N-(7-((3-methoxyazetidin-3-yl)ethynyl)-5-methyl-4-oxo-2,3,4,5-tetrahydrobenzo[b][1,4]oxazepin-3-yl)-4-phenoxypicolinamide] as the compound, how does the pIC50 (L929 cells; [1]) read?
A: Its pIC50 is 6.18.

Q: What about the pIC50 (U937 cells; [2]) of the same compound?
A: Its pIC50 is 8.46.

Q: What about the pIC50 (RIPK1; [3]) of the same compound?
A: Its pIC50 is 7.57.

Q: What does the source list for CN1C(=O)[C@@H](NC(=O)c2cc(OC3CCCC3)ccn2)COc2ccc(C#CC(C)(C)O)cc21 [Compound I-156, (S)-4-(cyclopentyloxy)-N-(7-(3-hydroxy-3-methylbut-1-yn-1-yl)-5-methyl-4-oxo-2,3,4,5-tetrahydrobenzo[b][1,4]oxazepin-3-yl)picolinamide]?
A: pIC50 (L929 cells; [1]): 4.99; pIC50 (U937 cells; [2]): 7.26; pIC50 (RIPK1; [3]): 7.56

Q: What does the source list for CN1C(=O)[C@@H](NC(=O)c2cc(OC3CCCC3)ccn2)COc2ccc(C#CC3(O)COC3)cc21 [Compound I-157, (S)-4-(cyclopentyloxy)-N-(7-((3-hydroxyoxetan-3-yl)ethynyl)-5-methyl-4-oxo-2,3,4,5-tetrahydrobenzo[b][1,4]oxazepin-3-yl)picolinamide]?
A: pIC50 (L929 cells; [1]): 5.29; pIC50 (U937 cells; [2]): 7.59; pIC50 (RIPK1; [3]): 7.50

Q: With CN1CCN(C(C)(C)C#Cc2ccc3c(c2)N(C)C(=O)[C@@H](NC(=O)c2cc(Oc4ccccc4)ccn2)CO3)CC1 [Compound I-158, (S)—N-(5-methyl-7-(3-methyl-3-(4-methylpiperazin-1-yl)but-1-yn-1-yl)-4-oxo-2,3,4,5-tetrahydrobenzo[b][1,4]oxazepin-3-yl)-4-phenoxypicolinamide] as the compound, how does the pIC50 (L929 cells; [1]) read?
A: The pIC50 was 5.78.

Q: What about the pIC50 (U937 cells; [2]) of the same compound?
A: Its pIC50 is 8.02.

Q: And the pIC50 (RIPK1)?
A: The pIC50 was 7.83.
